Like-named read-outs stand apart in the source and are kept apart here. Ends that are not written are not given here.
How the values were obtained:
NPR-11 [1] = biological target: T1, NPR-11 (Caenorhabditis elegans, UniProt Q18179); test: cAMP reporter gene assay, Gs (no forskolin), NPR-11; assay type: cell-based, C. elegans; details: 4 h, NPR-11-transfected HEK293, CRE-luciferase reporter, mean of >=3 independent experiments
T1 construct: expressed in transfected cells; host or cells: HEK293, transient
T1 sequence (Q18179 1-402): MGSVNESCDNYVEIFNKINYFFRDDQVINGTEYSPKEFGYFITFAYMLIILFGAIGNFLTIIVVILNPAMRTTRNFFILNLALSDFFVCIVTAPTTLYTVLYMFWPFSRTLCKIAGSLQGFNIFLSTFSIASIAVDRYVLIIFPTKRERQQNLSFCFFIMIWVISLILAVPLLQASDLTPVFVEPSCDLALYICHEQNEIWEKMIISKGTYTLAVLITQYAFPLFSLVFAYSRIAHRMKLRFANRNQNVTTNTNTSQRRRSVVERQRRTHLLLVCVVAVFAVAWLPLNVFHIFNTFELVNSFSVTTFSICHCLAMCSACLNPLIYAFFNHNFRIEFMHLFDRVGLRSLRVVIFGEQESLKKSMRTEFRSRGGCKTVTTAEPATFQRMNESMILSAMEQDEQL
Method: (§1) Activation of Gs and Gi/o was assessed with a cAMP reporter gene assay. HEK293 cells grown to 70–80% confluency in 6-well plates were transiently co-transfected with vectors encoding the receptor and the cAMP reporter gene plasmid pGL4.29 [luc2P/CRE/Hygro] (Promega; 4 μg total, 1:1 ratio) using Metafectene Pro (3 μl/μg DNA; Biontex) following the manufacturer’s instructions. 16 h post transfection, the cells were seeded into white 384-well plates at a density of 20,000 cells/well. On the next day, the medium was removed and the cells were stimulated with 20 μl of peptide solution (or forskolin as positive control) in serum-free DMEM for 4 h. For measuring Gi/o activity, the peptide solutions additionally contained 1 μM forskolin to elevate cellular cAMP levels. After incubation, the luciferase substrate OneGlo in lysis buffer (Promega) was added and the luminescence was measured in a microplate reader Tecan Spark (Tecan). Data were analyzed with GraphPad Prism 5.03 and are shown as fold of basal or fold of forskolin in case of Gαi/o activity.
(§2) For in vitro activation, data is presented as mean ± SEM of at least three independent experiments conducted in technical triplicate. […] For the C. elegans NPRs, we considered the strongest response elicited by any of the peptides downstream of a particular receptor as the receptor’s maximal signal. This may or may not be the biological maximum that can be reached by the ‘true’ endogenous agonist. For the human receptors, the response to the established endogenous agonist reflected the maximal signal.

NPR-5b [2] = biological target: T2, NPR-5b (Caenorhabditis elegans, UniProt Q6F3C9); test: cAMP reporter gene assay, Gs (no forskolin), NPR-5b; assay type: cell-based, C. elegans; details: 4 h, NPR-5b-transfected HEK293, CRE-luciferase reporter, mean of >=3 independent experiments
T2 sequence (Q6F3C9 1-433): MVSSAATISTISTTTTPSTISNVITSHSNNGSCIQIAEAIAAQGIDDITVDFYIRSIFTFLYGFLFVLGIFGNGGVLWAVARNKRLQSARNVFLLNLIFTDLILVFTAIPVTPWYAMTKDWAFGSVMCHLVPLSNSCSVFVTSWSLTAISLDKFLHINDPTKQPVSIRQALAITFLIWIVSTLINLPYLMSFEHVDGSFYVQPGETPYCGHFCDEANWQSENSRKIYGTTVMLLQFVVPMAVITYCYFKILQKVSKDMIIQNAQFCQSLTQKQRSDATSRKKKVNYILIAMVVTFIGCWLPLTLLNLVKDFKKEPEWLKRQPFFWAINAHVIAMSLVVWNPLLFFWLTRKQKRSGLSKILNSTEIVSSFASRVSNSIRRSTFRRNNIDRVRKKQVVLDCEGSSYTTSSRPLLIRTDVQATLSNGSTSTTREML
Method: as §1, §2

NPR-6 = test: cAMP reporter gene assay, Gs (no forskolin), NPR-6; assay type: cell-based, C. elegans; details: 4 h, NPR-6-transfected HEK293, CRE-luciferase reporter, mean of >=3 independent experiments
Method: as §1, §2

NPR-4b [3] = biological target: T3, NPR-4b (Caenorhabditis elegans, UniProt A0A078BTK0); test: cAMP reporter gene assay, Gs (no forskolin), NPR-4b; assay type: cell-based, C. elegans; details: 4 h, NPR-4b-transfected HEK293, CRE-luciferase reporter, mean of >=3 independent experiments
T3 sequence (A0A078BTK0 1-376): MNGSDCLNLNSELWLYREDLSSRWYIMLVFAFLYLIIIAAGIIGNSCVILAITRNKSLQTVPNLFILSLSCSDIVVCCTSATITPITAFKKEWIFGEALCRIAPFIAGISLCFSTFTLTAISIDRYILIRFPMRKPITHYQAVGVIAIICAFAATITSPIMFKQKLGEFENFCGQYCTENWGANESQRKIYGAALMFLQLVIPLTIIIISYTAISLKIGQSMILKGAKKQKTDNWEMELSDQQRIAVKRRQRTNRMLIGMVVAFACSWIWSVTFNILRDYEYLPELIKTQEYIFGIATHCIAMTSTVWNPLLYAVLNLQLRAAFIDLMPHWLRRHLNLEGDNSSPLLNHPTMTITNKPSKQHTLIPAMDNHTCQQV
Method: as §1, §2

NPR-3 = test: cAMP reporter gene assay, Gs (no forskolin), NPR-3; assay type: cell-based, C. elegans; details: 4 h, NPR-3-transfected HEK293, CRE-luciferase reporter, mean of >=3 independent experiments
Method: as §1, §2

NPR-1 [4] = biological target: T4, NPR-1 (Caenorhabditis elegans, UniProt Q18534); test: cAMP reporter gene assay, Gs (no forskolin), NPR-1; assay type: cell-based, C. elegans; parameters: host or cells: HEK293; details: 4 h, NPR-1-transfected HEK293, CRE-luciferase reporter, mean of >=3 independent experiments
T4 sequence (Q18534 1-457): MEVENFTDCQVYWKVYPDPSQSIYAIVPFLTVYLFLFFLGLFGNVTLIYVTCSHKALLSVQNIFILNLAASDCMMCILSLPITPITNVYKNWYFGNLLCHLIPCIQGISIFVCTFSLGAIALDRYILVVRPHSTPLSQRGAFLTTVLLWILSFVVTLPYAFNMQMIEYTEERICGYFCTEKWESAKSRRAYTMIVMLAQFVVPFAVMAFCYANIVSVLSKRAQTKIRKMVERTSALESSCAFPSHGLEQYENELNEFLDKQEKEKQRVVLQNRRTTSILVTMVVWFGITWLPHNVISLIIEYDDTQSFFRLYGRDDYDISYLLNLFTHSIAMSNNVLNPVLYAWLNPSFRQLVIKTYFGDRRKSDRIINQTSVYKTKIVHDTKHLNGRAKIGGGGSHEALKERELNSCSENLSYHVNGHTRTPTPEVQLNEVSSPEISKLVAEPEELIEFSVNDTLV
Method: as §1, §2

NPR-5b [5] = biological target: T2, NPR-5b; test: cAMP reporter gene assay, Gi/o (with forskolin), NPR-5b; assay type: cell-based, C. elegans; parameters: Emax: unit not given here; details: NPR-5b, transiently transfected HEK293 cells
Method: as §1, with “(Tecan).” for “(Tecan). Data were analyzed with GraphPad Prism 5.03 and are shown as fold of basal or fold of forskolin in case of Gαi/o activity.”
as §2

NPR-1 [6] = biological target: T4, NPR-1; test: cAMP reporter gene assay, Gi/o (inhibition of forskolin-induced cAMP), NPR-1; assay type: cell-based, C. elegans; parameters: host or cells: HEK293; details: for Emax: HEK293, read-out: Emax ± SEM [%]
Method: as §1, §2

[7] = Solubility of crude peptides in RP-HPLC purification solvents; assay type: physicochemical; details: H2O + 0.1% TFA / acetonitrile + 0.08% TFA (RP-HPLC purification conditions)
Method: C-terminally amidated peptides were synthesized in 15 μmol scale by solid-phase peptide synthesis following the Fmoc/tert-butyl strategy (reviewed in [18]) on Rink amide resin using an automated Syro II peptide synthesizer (MultiSynTech). Automated coupling reactions were performed as double couplings using 8 eq Nα-protected amino acid, activated in situ with equimolar amounts of Oxyma and […] in dimethylformamide (DMF) for 30 min. Automated Fmoc deprotection was carried out with 40% (v/v) piperidine in DMF for 3 min and 20% (v/v) piperidine in DMF for 10 min. Reactive side chains of amino acids were protected by tert-butyl (tBu for Tyr, Ser, Asp, Glu, Thr), trityl (Trt for Asn, Gln, His), 2,2,4,6,7-pentamethyldihydrobenzofuran-5-sulfonyl (Pbf for Arg) and tert-butyloxycarbonyl (Boc for Lys). Peptides were cleaved off the resin using trifluoroacetic acid (TFA)/H2O/triisopropylsilane (90/5/5, v/v/v) for 2.5 h at room temperature and precipitated in ice cold diethyl ether. All peptides were purified to > 95% purity by RP-HPLC (Shimadzu) using a Phenomenex Jupiter 10 μm Proteo 90 Å (C12) column. For most peptides, linear gradients of H2O + 0.1% trifluoroacetic acid (TFA) (eluent A) and acetonitrile (ACN) + 0.08% TFA (eluent B) were applied at a flow rate of 10 ml/minute. […] FLP-27, FLP-33, and FLP-34 were solubilized by ultrasonication at 50 °C for 10 min and subsequently purified under standard solvent conditions used pre-heated HPLC systems. […] Peptide identity was verified by matrix-assisted laser desorption/time of flight (MALDI-ToF; Ultraflex III MALDI-ToF/ToF, Bruker Daltonics) mass spectrometry, and peptide purity was evaluated with analytical RP-HPLC.

NPR-11 [8] = biological target: T1, NPR-11; test: cAMP reporter gene assay, Gi/o (inhibition of forskolin-induced cAMP), NPR-11; assay type: cell-based, C. elegans; details: for Emax: HEK293, read-out: Emax ± SEM [%]
Method: as §1, §2

NPR-4b [9] = biological target: T3, NPR-4b; test: cAMP reporter gene assay, Gi/o (inhibition of forskolin-induced cAMP), NPR-4b; assay type: cell-based, C. elegans
Method: as §1, with “(Tecan).” for “(Tecan). Data were analyzed with GraphPad Prism 5.03 and are shown as fold of basal or fold of forskolin in case of Gαi/o activity.”
as §2

[10] = 1 µM forskolin (positive control)
[11] = 100 µM forskolin (positive control)

Compound: C=C[C@@]1(C)CC(=O)[C@]2(O)[C@@]3(C)[C@@H](O)CCC(C)(C)[C@@H]3[C@H](O)[C@H](OC(C)=O)[C@@]2(C)O1 [forskolin, reference compound]
- cAMP assay Gs, NPR-11 (NPR-11 [1]; [10]): 16.67 x-fold of basal
- cAMP assay Gs, NPR-11 (NPR-11 [1]; [11]): 60.68 x-fold of basal
- cAMP assay Gs, NPR-5b (NPR-5b [2]; [10]): 23.17 x-fold of basal
- cAMP assay Gs, NPR-5b (NPR-5b [2]; [11]): 67.99 x-fold of basal
- cAMP assay Gs, NPR-6 (NPR-6; [10]): 12.19 x-fold of basal
- cAMP assay Gs, NPR-6 (NPR-6; [11]): 46.24 x-fold of basal
- cAMP assay Gs, NPR-4b (NPR-4b [3]; [10]): 16.52 x-fold of basal
- cAMP assay Gs, NPR-4b (NPR-4b [3]; [11]): 44.21 x-fold of basal
- cAMP assay Gs, NPR-3 (NPR-3; [10]): 20.07 x-fold of basal
- cAMP assay Gs, NPR-3 (NPR-3; [11]): 51.90 x-fold of basal
- cAMP assay Gs, NPR-1 (NPR-1 [4]; [10]): 15.39 x-fold of basal
- cAMP assay Gs, NPR-1 (NPR-1 [4]; [11]): 76.79 x-fold of basal

Compound: ADISTFASAINNAGRLRY-NH2 [FLP-34-1]
- Emax (NPR-5b [5]; forskolin (1 µM) set to 1.00, increase of cAMP, mean ± SEM of at least three independent experiments, SEM): 6.7 ± 8.21
- EC50 (NPR-5b [5]; full concentration-response curve, with 1 µM forskolin, increase of cAMP, at least three independent experiments): 20100 nM
- EC50 (NPR-1 [6]): 578 nM
- Emax (NPR-1 [6]; SEM): -0.65 ± 0.14%
- solubility of crude peptide [7]: partly insoluble
- Emax (NPR-11 [8]; SEM): -0.62 ± 0.1%
- EC50 (NPR-11 [8]; SEM): 20 nM

Compound: ALNRDSLVASLNNAERLRF-NH2 [FLP-34-2]
- solubility of crude peptide [7]: partly insoluble
- EC50 (NPR-11 [8]; EC50 at NPR-11, full concentration-response curve, inhibition of 1 µM forskolin-induced cAMP, transfected HEK293 (Figure S1, Table S11)): 0.7 nM
- Emax (NPR-11 [8]; SEM): -0.65 ± 0.14%
- EC50 (NPR-11 [8]; SEM): 0.631 nM

Compound: KHEYLRF-NH2 [FLP-14]
- Emax (NPR-1 [6]; SEM): -0.51 ± 0.13%
- EC50 (NPR-1 [6]; SEM): 25.1 nM
- Emax at NPR-1 (NPR-1 [6]; full concentration-response curve, inhibition of 1 µM forskolin-induced cAMP, transfected HEK293 (Figure S1)): 53 % of FLP-21 induced response
- EC50 (NPR-4b [9]): 2430 nM
- Emax (NPR-4b [9]; NPR-4b, forskolin (1 µM) set to 1.00, lower values correspond to high Gi/o activity, transiently transfected HEK293 cells, mean ± SEM of at least three independent experiments, SEM): -0.77 ± 0.2%
- EC50 (NPR-11 [8]): 1890 nM
- Emax (NPR-11 [8]; SEM): -0.86 ± 0.19%
